We go through 4 compounds from patent publication US12415789B2, “Macrocycles comprising a 4-amido-2,4-pentadienoate moiety for the treatment of hypoxic cancers” (Aarhus Universitet, priority 2019, dated 2025).

In one data set the test system is PANC-1 cells. Put plainly: Viability assay (CellTiter Blue), PANC-1 cells, hypoxia vs normoxia. The data set is classed as cell-based, human. To be noted: for Index [3] Selectivity index (IC50 [2]/IC50 [1]): PANC1, normoxic IC50 / hypoxic IC50. The method, then: (§1) PANC-1 and HaCat cells (PANC-1: RRID:CVCL 0480, taken from a person, HaCat: RRID:CVCL 0038) were cultured in DMEM (Gibco, Cat #: 21969-035) supplemented with FBS (10%, Gibco, Cat #: A31698-02), Penicillin/Streptomycin (1%, Sigma-Aldrich, Cat #: P0781), and Ala-Gln (200 μM, Sigma-Aldrich, Cat #: G8541). BxPC3 cells (RRID:CVCL 0186, taken from a person) were cultured in RPMI 1640 (Gibco, Cat #: 61870-010) supplemented with FBS (10%) and Penicillin/Streptomycin (1%). U2OS (RRID:CVCL 0042) and HCT116 cells (RRID:CVCL 0291, ATCC CCL-247) were cultured in McCoy's 5A (Sigma cat. no. M9309) supplemented with FBS (10%) and Penicillin/Streptomycin (1%). Cells were grown under normoxic conditions in T75 flasks (Biolite, Thermo Scientific, Cat #: 130190) in a humidified atmosphere with 5% CO2 at 37° C. For hypoxic conditions cells were placed in a modular incubator chamber (MIC-101, Billups-Rothenberg) equipped with a 10-cm dish with milliQ water and flushed with CO2/N2 (5%/95%, BioNERT, AGA Cat #: 100466065) for 8 minutes at 20-25 L/minute. Cells were passaged approximately every third day by trypsination (Sigma-Aldrich, Cat #: T4049) followed by transfer of ⅕^th of the cells to a new flask. All cell cultures were handled aseptically in a laminar air flow bench and grown in sterile-filtered (Jetbiofil, Cat #: FPE204500) medium according to ATCC's recommendations. All human cell lines were correctly identified by short tandem repeat analysis and tested free of mycoplasma contamination by MycoAlert (Lonza, Cat #: LT07-218).
(§2) Cells were seeded in black 96-well plates (2000 cells/well, 75 μL/well, ThermoFisher Scientific, Cat #: 137103) in complete medium. Subsequently, the cells were allowed to adhere to the substratum overnight. The next day, compounds were serially diluted in DMSO as 200× solutions. The 200× solutions of compounds were initially diluted in complete medium to 4× solutions containing 2% DMSO. Finally, the compounds were given to cells by the addition of 25 μL/well in triplicates resulting in 1× solutions of compounds in 100 μL/well. The cells were then incubated under either normoxia or hypoxia. 90 minutes before the end of the experiment, all cells were given CellTiter Blue (20 μL/well, Promega, Cat #: G8080) and reincubated under normoxia for the remaining time of the experiment. The viability of the cells was assessed by measuring fluorescence in a plate reader (ex/em: 552±10/598±10, Tecan Spark 10M). Data were normalized to the two lowest concentrations of compound and fitted to a 4-parameter nonlinear regression in Prism 7.04 for Windows, GraphPad Software, La Jolla Calif. USA. IC50 values were extrapolated as the X value at Y=50%. Results can be found in Table 1 and the corresponding dose-response curves seen in FIGS. 12 to 17 and in FIGS. 9 to 10.

The test system of a further data set is HaCat cells. Put plainly: Viability assay (CellTiter Blue), HaCat cells, hypoxia vs normoxia. The data set is classed as cell-based, human. The settings on record: for Index [3] Selectivity index (IC50 [2]/IC50 [1]): normoxic IC50 / hypoxic IC50. In general terms: Resazurin is reduced to fluorescent resorufin, in cell work by metabolically active cells.
The test system of another data set is U2OS cells. Briefly: Viability assay (CellTiter Blue), U2OS cells, hypoxia vs normoxia. The data set is classed as cell-based, human. The settings on record: for Index [3] Selectivity index (IC50 [2]/IC50 [1]): normoxic IC50 / hypoxic IC50.
A further data set deals with HCT116 cells. Put plainly: Viability assay (CellTiter Blue), HCT116 cells, hypoxia vs normoxia. The data set is classed as cell-based, human. To be noted: for Index [3] Selectivity index (IC50 [2]/IC50 [1]): HCT116, normoxic IC50 / hypoxic IC50. Here is the method: as §1, §2
A further data set deals with BxPC3 cells. Briefly: Viability assay (CellTiter Blue), BxPC3 cells, hypoxia vs normoxia. The settings on record: for Index [3] Selectivity index (IC50 [2]/IC50 [1]): BxPC3, normoxic IC50 / hypoxic IC50. The data set is classed as cell-based, human. The method, then:
as §1, §2

The test system of another data set is tested cell lines. Put plainly: Viability assays, summary statements across the tested cell lines. It is filed as cell-based, human. Here is the method: as §1, with “Cells were passaged approximately every third day by trypsination (Sigma-Aldrich, Cat #: T4049) followed by transfer of ⅕^th of the cells to a new flask. All cell cultures were handled aseptically in a laminar air flow bench and grown in sterile-filtered (Jetbiofil, Cat #: FPE204500) medium according to ATCC's recommendations. All human cell lines were correctly identified by short tandem repeat analysis and tested free of mycoplasma contamination by MycoAlert (Lonza, Cat #: LT07-218).” left out
Cells were seeded in black 96-well plates (2000 cells/well, 75 μL/well, ThermoFisher Scientific, Cat #: 137103) in complete medium. […] The viability of the cells was assessed by measuring fluorescence in a plate reader (ex/em: 552±10/598±10, Tecan Spark 10M). […]

Data set [1] can be described thus: Chemical stability measurements (UPLC-UV). To be noted: 20 μM in sodium tetraborate buffer (pH 10) with 30% MeOH, 23° C., up to 9 hours.
Description: The stability of compounds under neutral or basic conditions were tested by dissolving compounds to 20 μM in PBS (pH 7.4) or sodium tetraborate buffer (pH 10) both mixed with 30% MeOH. The mixtures were shaken vigorously and injected immediately in the HPLC. The reactions were allowed to run at 23° C. for 9 hours and injections were performed once per hour. The concentrations of unreacted compounds were determined by UPLC-UV (Agilent 1260 infinity II) at 262 nm by injecting 5 μL on a PFP column (Poroshell 120 PFP, 3.0×100 mm, 2.7 micron). The compounds were eluted by a 1 mL/minute-gradient of acetonitrile in H2O from 5% to 95% over 8 minutes, then 95% for 1 minute and then 5% acetonitrile in H2O in 30 seconds.
The mark [2] stands for this setting: Homo sapiens, hypoxic conditions, read-out: IC50 (μM) [1].
Where [3] appears, read: Homo sapiens, normoxic conditions, read-out: IC50 (μM) [2].
Setting [4] is: PANC1, hypoxic conditions, read-out: IC50 (μM) [1].
Where [5] appears, read: PANC1, normoxic conditions, read-out: IC50 (μM) [2].
Setting [6] is: hypoxic conditions, read-out: IC50 (μM) [1].
Setting [7] is: normoxic conditions, read-out: IC50 (μM) [2].
[8] abbreviates: HCT116, hypoxic conditions, read-out: IC50 (μM) [1].
[9] abbreviates: HCT116, normoxic conditions, read-out: IC50 (μM) [2].
Setting [10] is: BxPC3, hypoxic conditions, read-out: IC50 (μM) [1].
[11] abbreviates: BxPC3, normoxic conditions, read-out: IC50 (μM) [2].

Read-outs that look alike come from different tables or passages of the source.

Description for HaCat cells: (§3) Cells were seeded in black 96-well plates (2000 cells/well, 75 μL/well, ThermoFisher Scientific, Cat #: 137103) in complete medium. Subsequently, the cells were allowed to adhere to the substratum overnight. The next day, compounds were serially diluted in DMSO as 200× solutions. The 200× solutions of compounds were initially diluted in complete medium to 4× solutions containing 2% DMSO. Finally, the compounds were given to cells by the addition of 25 μL/well in triplicates resulting in 1× solutions of compounds in 100 μL/well. The cells were then incubated under either normoxia or hypoxia. 90 minutes before the end of the experiment, all cells were given CellTiter Blue (20 μL/well, Promega, Cat #: G8080) and reincubated under normoxia for the remaining time of the experiment. The viability of the cells was assessed by measuring fluorescence in a plate reader (ex/em: 552±10/598±10, Tecan Spark 10M). Data were normalized to the two lowest concentrations of compound and fitted to a 4-parameter nonlinear regression in Prism 7.04 for Windows, GraphPad Software, La Jolla Calif. […] IC50 values were extrapolated as the X value at Y=50%.
Description for U2OS cells: as §3

For `Nc1n[n+]([O-])c2ccccc2[n+]1[O-]` [Tirapazamine, reference compound], the IC50 (as a rule, the concentration that inhibits the measured activity by half) with PANC-1 cells (Homo sapiens, PANC-1, PANC1, hypoxic conditions, read-out: IC50 (μM) [1]) worked out at 11 µM; with PANC-1 cells (Homo sapiens, PANC-1, PANC1, normoxic conditions, read-out: IC50 (μM) [2]), 76 µM; in the data set with HaCat cells (setting [2]) it was 20 µM; in the data set with HaCat cells (setting [3]), 106 µM; in the data set with U2OS cells (setting [2]), 98 µM; in the data set with U2OS cells (setting [3]), 18 µM. Also, the IC50 is 14.4 µM in the data set with HCT116 cells (Homo sapiens, HCT-116, HCT116, hypoxic conditions, read-out: IC50 (μM) [1]); 58 µM in the data set with HCT116 cells (Homo sapiens, HCT-116, HCT116, normoxic conditions, read-out: IC50 (μM) [2]); 14 µM with BxPC3 cells (Homo sapiens, BXPC-3, BxPC3, hypoxic conditions, read-out: IC50 (μM) [1]); 39 µM with BxPC3 cells (Homo sapiens, BXPC-3, BxPC3, normoxic conditions, read-out: IC50 (μM) [2]). Besides, the “Index [3] Selectivity index (IC50 [2]/IC50 [1])” value (“Index [3] Selectivity index” below) is recorded as 7.1 in the data set with PANC-1 cells; 5.2 in the data set with HaCat cells; 5.5 with U2OS cells; 4.0 in the data set with HCT116 cells; 2.8 in the data set with BxPC3 cells.

With `C=C1C=CC(=O)N(C)CC(=O)NCCOc2cc(CCCCCCCCCCCC)ccc2C(=O)N1` [PH466, (E)-16-dodecyl-7-methyl-11-methylene-3,4,6,7,11,12-hexahydro-benzo[n][1]oxa[4,7,12]triazacyclopentadecine-5,8,13(2H)-trione], the concentration for half-maximal inhibition (IC50) in the data set with PANC-1 cells (setting [4]) is 1.8 µM; with PANC-1 cells (setting [5]), 4.1 µM; in the data set on HaCat cells (setting [6]) it was 3.9 µM; in the data set on HaCat cells (setting [7]), 4.9 µM; in the data set on U2OS cells (setting [6]), 2.1 µM; in the data set with U2OS cells (setting [7]) it was 3.8 µM. The IC50 in the data set on HCT116 cells (setting [8]) amounted to 0.98 µM; in the data set on HCT116 cells (setting [9]), 4.2 µM; with BxPC3 cells (setting [10]), 3.4 µM; in the data set with BxPC3 cells (setting [11]), 4.9 µM. Also, the “Index [3] Selectivity index” value with PANC-1 cells amounted to 2.3; in the data set on HaCat cells, 1.3; in the data set on U2OS cells it was 1.8; in the data set with HCT116 cells, 4.3; in the data set with BxPC3 cells, 1.4.

`C=C1/C=C/C(=O)N(C)CC(=O)N[C@@H](CCCCNC(=O)OC(C)(C)C)COc2cc(CCCCCCCCCCCC)ccc2C(=O)N1` [PH911, tert-butyl (S,E)-(4-(16-dodecyl-7-methyl-11-methylene-5,8,13-trioxo-2,3,4,5,6,7,8,11,12,13-decahydrobenzo[n][1]oxa[4,7,12]-triazacyclopentadecin-3-yl)butyl)carbamate]: the selectivity indices result with tested cell lines was “four to eight-fold”. In addition, the IC50 in the data set with PANC-1 cells (setting [4]) came out at 0.76 µM; with PANC-1 cells (setting [5]), 6.2 µM; in the data set on HCT116 cells (setting [8]), 0.73 µM; in the data set on HCT116 cells (setting [9]) it was 3 µM; with BxPC3 cells (setting [10]), 1.2 µM; in the data set on BxPC3 cells (setting [11]), 4.7 µM. Also, the “Index [3] Selectivity index” value with PANC-1 cells is given as 8.1; in the data set on HCT116 cells, 4.2; in the data set on BxPC3 cells it was 3.9.

With `C=C1/C=C/C(=O)N(C)CC(=O)N[C@@H]([C@H](O)C(N)=O)C(=O)OC([C@H](C)CCCCCC)[C@H](C)C(=O)N1` (some centres unmarked) [rakicidin D], the “chemical stability at elevated pH” value in data set [1] is given as “decreased stability”.
